Measured values as given in patent publication US20260103465A1, “GLYCOGEN SYNTHASE KINASE 3 INHIBITORS AND USES THEREOF” (The Broad Institute, Inc., priority 2023, published 2026).
pIC50: −log10 of the molar value. Where two headings read alike, the source gives them in different places.

Experiments:
[1] = Human liver microsomal stability; assay type: in vitro ADME; details: human liver microsomes
Description: Stability of compound (5 μL of a 10 mM DMSO solution) in human liver microsomes was tested in duplicate by incubating compound at 1 μM for 60 minutes at 37° C. Compound level at 60 minutes was compared to level at 0 minutes, and percent remaining was calculated. Order by selecting Microsomal Stability in Prometheus, checking boxes for desired species. Assay Controls: microsomes with NADPH without compound-matrix interference. Microsomes plus compound without NADPH—non-enzymatic instability.

[2] = system: MDR1-MDCK cell monolayers; assay: MDR1/MDCK permeability assay; assay type: in vitro ADME; details: for MDCK Permeability (MDR1-MDCK); Mean; Papp(A-B) (10^−6 cm/s): A to B; for MDCK Permeability (MDR1-MDCK); Mean; Papp(B-A) (10^−6 cm/s): B to A; for MIDCK Permeability (MDR1-MDCK); Mean; P. Ratio(B-A/A-B) Efflux Ratio / MDCK Permeability (MDR1-MDCK); Mean; P. Ratio(B-A/A-B) Efflux Ratio: Papp B-A/A-B
From the text: The MDR1/MDCK assay is run at WuXi and Absorption Systems. This assay is used to determine the blood-brain barrier (BBB) penetration potential of a test compound using MDR1-MDCK cell monolayers. Catalog number EA203.
• The percent recovery of the test compound from the Transwell® wells containing MDR1-MDCK cell monolayers • The apparent permeability (Papp) in both directions • The efflux ratio (Papp B to A)/(Papp A to B) • The blood-brain barrier penetration potential classification: • High when • Papp A to B≥3.0×10^−6 cm/s, and efflux<3.0 • Moderate when • Papp A to B≥3.0×10^−6 cm/s, and 10>efflux≥3.0 • Low when either • Papp A to B≥3.0×10^−6 cm/s, and […], or when • Papp A to B<[…].
• Test compound at 5 μM in HBSSg with maximum DMSO concentration not greater than 1%.
• Confluent monolayers of MDR1-MDCK cells, 7 to 11 days old.
• Receiver well with 1% BSA in modified Hanks buffer (HBSSg) • Apical and basolateral side at pH 7.4 • Dose two monolayers in each direction (N=2) • Dose apical side for (A to B) assessment • Dose basolateral side for (B to A) assessment • Sample both apical and basolateral sides at 120 minutes • Determine the concentrations of test compound using a generic LC-MS/MS method with a minimum 4 point calibration curve.
• The quality of the cell monolayer batch is verified using control compounds before monolayers are released for use • The quality of each monolayer used in the assay is verified by a TEER measurement and by calculating the Papp for a control compound.

[3] = target: T1, GSK3a (GST-full length GSK3a) (Homo sapiens, UniProt P49840); assay: GSK3a TR-FRET kinase inhibition assay; assay type: biochemical
T1 construct: GST-full length GSK3a [SignalChem G08-10G]; purchased SignalChem G08-10G
Procedure, shortened: (§1)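 IC50 derived from normalized 665/615 TR-FRET signal (Tb anti-pSer641 antibody, streptavidin-d2), read after EDTA stop. Reaction: 1 nM GST-full-length enzyme, 30 min compound pre-incubation, 100 min at ambient temperature in Tris pH 7.5 with 1% DMSO, 200 nM biotinylated primed glycogen synthase peptide, ATP 2 μM to 1 mM.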

[4] = target: T2, GSK3b (GST-full length GSK3b) (Homo sapiens, UniProt P49841); assay: GSK3b TR-FRET kinase inhibition assay; assay type: biochemical
T2 construct: GST-full length GSK3b: [SignalChem G08-9G]; purchased SignalChem G08-9G
Procedure, shortened: as §1

[5] = 4 μM ATP, read-out: GSK3α TR-FRET 4 μM ATP GMean IC50
[6] = 2 μM ATP, read-out: GSK3β TR-FRET 2 μM ATP GMean IC50
[7] = 1 mM ATP, Table 3, read-out: GSK3a TR-FRET 1 mM ATP Average IC50
[8] = 1 mM ATP, Table 3, read-out: GSK3b TR-FRET 1 mM ATP Average IC50

T2 sequence (P49841 whole entry): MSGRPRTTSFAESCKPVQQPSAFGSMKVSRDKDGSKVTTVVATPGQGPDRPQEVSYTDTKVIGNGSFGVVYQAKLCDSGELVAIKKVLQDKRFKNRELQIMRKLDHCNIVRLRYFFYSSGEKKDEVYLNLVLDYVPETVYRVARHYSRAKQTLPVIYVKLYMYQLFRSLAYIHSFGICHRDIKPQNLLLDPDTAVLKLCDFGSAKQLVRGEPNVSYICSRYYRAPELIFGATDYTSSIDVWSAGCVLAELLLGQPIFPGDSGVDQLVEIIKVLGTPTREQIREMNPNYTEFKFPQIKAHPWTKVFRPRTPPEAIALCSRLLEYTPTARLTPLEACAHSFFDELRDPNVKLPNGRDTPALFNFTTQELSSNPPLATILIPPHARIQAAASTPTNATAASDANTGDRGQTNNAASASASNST
T1 sequence (P49840 whole entry): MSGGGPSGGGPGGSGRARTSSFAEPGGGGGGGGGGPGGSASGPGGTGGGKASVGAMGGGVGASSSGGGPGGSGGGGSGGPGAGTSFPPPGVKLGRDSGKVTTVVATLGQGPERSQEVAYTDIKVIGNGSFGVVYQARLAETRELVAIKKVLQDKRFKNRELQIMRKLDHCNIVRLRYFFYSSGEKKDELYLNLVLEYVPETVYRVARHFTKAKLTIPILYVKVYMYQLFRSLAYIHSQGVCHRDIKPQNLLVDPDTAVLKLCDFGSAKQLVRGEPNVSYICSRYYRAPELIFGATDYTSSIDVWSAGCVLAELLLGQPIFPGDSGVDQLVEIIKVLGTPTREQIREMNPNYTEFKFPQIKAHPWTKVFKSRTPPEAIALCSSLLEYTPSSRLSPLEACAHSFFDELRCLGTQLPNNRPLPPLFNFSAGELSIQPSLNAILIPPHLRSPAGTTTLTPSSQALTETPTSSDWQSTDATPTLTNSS

SMILES	Microsome Stability (Human) (DMPK_BIIB); Mean; in vitro t1/2 ([1]; Table 3) [min]	MDCK Permeability (MDR1-MDCK); Mean; Papp(A-B) (10^−6 cm/s) ([2]; Table 3)	MDCK Permeability (MDR1-MDCK); Mean; Papp(B-A) (10^−6 cm/s) ([2]; Table 3)	MIDCK Permeability (MDR1-MDCK); Mean; P. Ratio(B-A/A-B) Efflux Ratio ([2]; Table 3)	pIC50 [3, 5]	pIC50 [4, 6]	pIC50 [3, 7]	pIC50 [4, 8]	Microsome Stability (Human) (DMPK_BIIB); Mean; in vitro t1/2 ([1]; Table 4) [min]	MDCK Permeability (MDR1-MDCK); Mean; Papp(A-B) (10^−6 cm/s) ([2]; Table 4)	MDCK Permeability (MDR1-MDCK); Mean; Papp(B-A) (10^−6 cm/s) ([2]; Table 4)	MDCK Permeability (MDR1-MDCK); Mean; P. Ratio(B-A/A-B) Efflux Ratio ([2]; Table 4)	pIC50 ([3]; 1 mM ATP, Table 4, read-out: GSK3α TR-FRET 1 mM ATP GMean IC50)	pIC50 ([4]; 1 mM ATP, Table 4, read-out: GSK3β TR-FRET 1 mM ATP GMean IC50)
CCC1(c2cccc(-c3c(F)cncc3OC)c2)C2=C(CC(C)(C)CC2=O)Nc2ncccc21 (single isomer, unassigned) [Compound 154A]	6.4	15 10^−6 cm/s	9.5 10^−6 cm/s	0.62	< 5.30	< 5.30	–	–	–	–	–	–	–	–
CC1(C)CC(=O)C2=C(C1)Nc1ncc(F)c(C#N)c1C2(C)c1ccccc1 (single isomer, unassigned) [Compound 121A]	–	22 10^−6 cm/s	63 10^−6 cm/s	2.9	–	–	≥ 7.00	≥ 7.00	–	–	–	–	–	–
CCC1(c2cccc(-c3ccnc(C)c3C)c2)C2=C(CC(C)(C)CC2=O)Nc2ncccc21 (single isomer, unassigned) [147 B]	–	–	–	–	≥ 7.00	≥ 7.00	–	–	14	8.1 10^−6 cm/s	31 10^−6 cm/s	3.8	6.00 to 7.00	5.30 to 6.00
CCC1(c2ccccc2)C2=C(CC3(CCC3)CC2=O)Nc2ncccc21 (single isomer, unassigned) [Compound 110A]	–	–	–	–	–	–	5.30 to 6.00	4.70 to 5.30	5.4	22 10^−6 cm/s	31 10^−6 cm/s	1.4	–	–
CCC1(c2ccccc2)C2=C(CC(C)(C)CC2=O)Nc2ncc(F)cc21 (single isomer, unassigned) [Compound 114B]	–	–	–	–	–	–	–	–	1.7	12 10^−6 cm/s	24 10^−6 cm/s	2.1	–	–
CCC1(c2ccccc2)C2=C(CC(C)(C)CC2=O)Nc2ncc(C(F)(F)F)cc21 (single isomer, unassigned) [Compound 133B]	–	–	–	–	–	–	–	–	73	11 10^−6 cm/s	16 10^−6 cm/s	1.5	–	–
CC1(C)CC(=O)C2=C(C1)Nc1nccc(C#N)c1C2(C)c1ccccc1 (single isomer, unassigned) [Compound 108A]	–	18 10^−6 cm/s	56 10^−6 cm/s	3.2	–	–	6.00 to 7.00	6.00 to 7.00	–	–	–	–	–	–
CC1(C)CC(=O)C2=C(C1)Nc1ncc(F)cc1C2(C)c1cccc(S(C)(=O)=O)c1 (single isomer, unassigned) [Compound 139A]	–	0.52 10^−6 cm/s	75 10^−6 cm/s	144	–	–	≥ 7.00	≥ 7.00	–	–	–	–	–	–
CCC1(c2ccccc2)C2=C(CC3(CCC3)CC2=O)Nc2ncccc21 (single isomer, unassigned) [Compound 110B]	–	–	–	–	–	–	–	–	1.7	13 10^−6 cm/s	27 10^−6 cm/s	2.1	–	–
